The source of these data is ChEMBL document CHEMBL5465560, “Selectivity Literature for EUbOPEN Chemogenomic Library” (2024).

For experiment [1], the target named is T1, Ephrin type-B receptor 6 (Homo sapiens) (UniProt O15197).
T1 sequence (whole entry): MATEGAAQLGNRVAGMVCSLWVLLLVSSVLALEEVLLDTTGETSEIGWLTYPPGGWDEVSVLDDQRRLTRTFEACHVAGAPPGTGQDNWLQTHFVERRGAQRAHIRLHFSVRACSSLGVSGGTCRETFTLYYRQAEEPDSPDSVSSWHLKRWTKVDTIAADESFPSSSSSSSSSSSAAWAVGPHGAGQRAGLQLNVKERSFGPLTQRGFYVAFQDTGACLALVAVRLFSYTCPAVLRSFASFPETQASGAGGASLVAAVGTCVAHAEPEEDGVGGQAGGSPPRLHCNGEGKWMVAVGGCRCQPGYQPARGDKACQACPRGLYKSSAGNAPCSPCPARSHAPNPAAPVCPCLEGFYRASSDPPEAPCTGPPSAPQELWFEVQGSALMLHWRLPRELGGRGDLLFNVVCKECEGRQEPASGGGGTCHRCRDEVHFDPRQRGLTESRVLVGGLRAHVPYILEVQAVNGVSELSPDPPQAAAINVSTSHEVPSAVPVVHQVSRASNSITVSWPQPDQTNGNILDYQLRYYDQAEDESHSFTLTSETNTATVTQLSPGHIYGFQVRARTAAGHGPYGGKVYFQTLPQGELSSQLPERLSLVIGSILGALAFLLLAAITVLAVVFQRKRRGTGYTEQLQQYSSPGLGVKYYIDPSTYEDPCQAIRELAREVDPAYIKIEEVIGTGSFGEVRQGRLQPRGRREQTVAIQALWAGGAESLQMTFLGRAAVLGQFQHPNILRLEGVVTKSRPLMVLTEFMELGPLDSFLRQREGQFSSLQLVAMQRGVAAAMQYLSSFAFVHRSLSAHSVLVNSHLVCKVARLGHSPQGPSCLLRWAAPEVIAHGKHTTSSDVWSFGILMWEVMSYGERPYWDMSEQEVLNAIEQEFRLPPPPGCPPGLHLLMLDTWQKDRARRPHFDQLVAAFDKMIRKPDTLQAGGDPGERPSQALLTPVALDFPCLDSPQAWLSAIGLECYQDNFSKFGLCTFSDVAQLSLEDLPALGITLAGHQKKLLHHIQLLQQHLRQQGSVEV
In words: Selectivity interaction (KinomeScan (DiscoverX)) EUB0001619a EPHB6. The note with it: at 1 µM.

For experiment [2], the target named is BDNF/NT-3 growth factors receptor (Homo sapiens) (UniProt Q16620). In words: Selectivity interaction (KinomeScan (DiscoverX)) EUB0001619a NTRK2. The note with it: at 1 µM.
The target of experiment [3] is Serine/threonine-protein kinase 26 (Homo sapiens, UniProt Q9P289). The experiment in a line: Selectivity interaction (KinomeScan (DiscoverX)) EUB0000695a STK26. The note with it: at 100 nM.
Experiment [4] deals with T2, Interleukin-1 receptor-associated kinase 4 (Homo sapiens) (UniProt Q9NWZ3).
T2 sequence (whole entry): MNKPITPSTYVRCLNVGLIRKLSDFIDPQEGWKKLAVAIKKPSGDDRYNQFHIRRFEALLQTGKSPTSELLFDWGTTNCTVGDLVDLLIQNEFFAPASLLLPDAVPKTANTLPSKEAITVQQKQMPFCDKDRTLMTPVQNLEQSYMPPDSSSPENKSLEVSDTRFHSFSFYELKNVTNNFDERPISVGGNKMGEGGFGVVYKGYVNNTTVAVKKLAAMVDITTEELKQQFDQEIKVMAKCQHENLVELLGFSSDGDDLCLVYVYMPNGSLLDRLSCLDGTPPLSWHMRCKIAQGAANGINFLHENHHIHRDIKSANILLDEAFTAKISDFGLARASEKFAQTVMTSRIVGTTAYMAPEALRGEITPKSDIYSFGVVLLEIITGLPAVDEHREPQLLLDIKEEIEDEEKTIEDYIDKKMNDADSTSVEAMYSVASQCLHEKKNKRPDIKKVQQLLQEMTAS
In words: Selectivity interaction (KinomeScan (DiscoverX)) EUB0000666a IRAK4. The note with it: at 10 µM.

In experiment [5] the target is Serine/threonine-protein kinase MRCK beta (Homo sapiens) (UniProt Q9Y5S2). The experiment in a line: Selectivity interaction (KinomeScan (DiscoverX)) EUB0000666a CDC42BPB. The settings on record: at 10 µM.
Experiment [6] can be described thus: Selectivity interaction (KinomeScan (DiscoverX)) EUB0000666a CDPK1. The settings on record: at 10 µM.
In experiment [7] the target is T3, Serine/threonine-protein kinase TAO2 (Homo sapiens) (UniProt Q9UL54).
T3 sequence (whole entry): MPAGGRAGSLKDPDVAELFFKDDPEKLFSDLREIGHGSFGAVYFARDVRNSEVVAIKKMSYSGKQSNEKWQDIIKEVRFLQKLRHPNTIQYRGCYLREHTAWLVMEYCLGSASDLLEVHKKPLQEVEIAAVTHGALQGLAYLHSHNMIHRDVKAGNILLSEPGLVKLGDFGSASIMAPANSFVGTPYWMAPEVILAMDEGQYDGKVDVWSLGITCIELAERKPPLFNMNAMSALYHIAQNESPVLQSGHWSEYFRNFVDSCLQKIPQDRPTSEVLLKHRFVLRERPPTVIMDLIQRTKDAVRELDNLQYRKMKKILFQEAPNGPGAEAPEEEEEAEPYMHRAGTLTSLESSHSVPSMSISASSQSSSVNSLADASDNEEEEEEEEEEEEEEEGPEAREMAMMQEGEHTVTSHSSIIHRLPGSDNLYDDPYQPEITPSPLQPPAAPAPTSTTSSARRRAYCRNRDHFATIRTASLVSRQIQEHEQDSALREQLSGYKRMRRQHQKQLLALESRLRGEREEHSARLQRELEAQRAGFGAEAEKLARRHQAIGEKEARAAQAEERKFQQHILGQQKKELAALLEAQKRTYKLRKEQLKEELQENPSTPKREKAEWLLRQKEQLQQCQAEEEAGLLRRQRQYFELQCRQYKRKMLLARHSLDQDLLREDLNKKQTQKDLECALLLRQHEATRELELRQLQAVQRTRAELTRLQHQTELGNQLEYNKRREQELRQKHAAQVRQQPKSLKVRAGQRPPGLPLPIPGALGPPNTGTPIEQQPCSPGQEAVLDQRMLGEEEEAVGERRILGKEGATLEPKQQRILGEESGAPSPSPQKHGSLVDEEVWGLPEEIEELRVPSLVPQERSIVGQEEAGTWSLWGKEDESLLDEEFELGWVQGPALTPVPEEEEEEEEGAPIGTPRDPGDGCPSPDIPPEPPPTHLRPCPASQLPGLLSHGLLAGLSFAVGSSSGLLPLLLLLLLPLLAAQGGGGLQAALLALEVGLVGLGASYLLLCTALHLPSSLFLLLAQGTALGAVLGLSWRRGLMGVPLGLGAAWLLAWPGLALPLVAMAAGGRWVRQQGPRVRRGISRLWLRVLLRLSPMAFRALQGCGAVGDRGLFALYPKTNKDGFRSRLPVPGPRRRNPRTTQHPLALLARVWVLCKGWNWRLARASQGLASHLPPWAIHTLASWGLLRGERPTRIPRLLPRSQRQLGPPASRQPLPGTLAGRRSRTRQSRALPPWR
In words: Selectivity interaction (SelectScreen profiling (Invitrogen)) EUB0000607a TAOK2. The note with it: at 2 µM.

Sequence of Serine/threonine-protein kinase MRCK beta (Homo sapiens) (Q9Y5S2 whole entry): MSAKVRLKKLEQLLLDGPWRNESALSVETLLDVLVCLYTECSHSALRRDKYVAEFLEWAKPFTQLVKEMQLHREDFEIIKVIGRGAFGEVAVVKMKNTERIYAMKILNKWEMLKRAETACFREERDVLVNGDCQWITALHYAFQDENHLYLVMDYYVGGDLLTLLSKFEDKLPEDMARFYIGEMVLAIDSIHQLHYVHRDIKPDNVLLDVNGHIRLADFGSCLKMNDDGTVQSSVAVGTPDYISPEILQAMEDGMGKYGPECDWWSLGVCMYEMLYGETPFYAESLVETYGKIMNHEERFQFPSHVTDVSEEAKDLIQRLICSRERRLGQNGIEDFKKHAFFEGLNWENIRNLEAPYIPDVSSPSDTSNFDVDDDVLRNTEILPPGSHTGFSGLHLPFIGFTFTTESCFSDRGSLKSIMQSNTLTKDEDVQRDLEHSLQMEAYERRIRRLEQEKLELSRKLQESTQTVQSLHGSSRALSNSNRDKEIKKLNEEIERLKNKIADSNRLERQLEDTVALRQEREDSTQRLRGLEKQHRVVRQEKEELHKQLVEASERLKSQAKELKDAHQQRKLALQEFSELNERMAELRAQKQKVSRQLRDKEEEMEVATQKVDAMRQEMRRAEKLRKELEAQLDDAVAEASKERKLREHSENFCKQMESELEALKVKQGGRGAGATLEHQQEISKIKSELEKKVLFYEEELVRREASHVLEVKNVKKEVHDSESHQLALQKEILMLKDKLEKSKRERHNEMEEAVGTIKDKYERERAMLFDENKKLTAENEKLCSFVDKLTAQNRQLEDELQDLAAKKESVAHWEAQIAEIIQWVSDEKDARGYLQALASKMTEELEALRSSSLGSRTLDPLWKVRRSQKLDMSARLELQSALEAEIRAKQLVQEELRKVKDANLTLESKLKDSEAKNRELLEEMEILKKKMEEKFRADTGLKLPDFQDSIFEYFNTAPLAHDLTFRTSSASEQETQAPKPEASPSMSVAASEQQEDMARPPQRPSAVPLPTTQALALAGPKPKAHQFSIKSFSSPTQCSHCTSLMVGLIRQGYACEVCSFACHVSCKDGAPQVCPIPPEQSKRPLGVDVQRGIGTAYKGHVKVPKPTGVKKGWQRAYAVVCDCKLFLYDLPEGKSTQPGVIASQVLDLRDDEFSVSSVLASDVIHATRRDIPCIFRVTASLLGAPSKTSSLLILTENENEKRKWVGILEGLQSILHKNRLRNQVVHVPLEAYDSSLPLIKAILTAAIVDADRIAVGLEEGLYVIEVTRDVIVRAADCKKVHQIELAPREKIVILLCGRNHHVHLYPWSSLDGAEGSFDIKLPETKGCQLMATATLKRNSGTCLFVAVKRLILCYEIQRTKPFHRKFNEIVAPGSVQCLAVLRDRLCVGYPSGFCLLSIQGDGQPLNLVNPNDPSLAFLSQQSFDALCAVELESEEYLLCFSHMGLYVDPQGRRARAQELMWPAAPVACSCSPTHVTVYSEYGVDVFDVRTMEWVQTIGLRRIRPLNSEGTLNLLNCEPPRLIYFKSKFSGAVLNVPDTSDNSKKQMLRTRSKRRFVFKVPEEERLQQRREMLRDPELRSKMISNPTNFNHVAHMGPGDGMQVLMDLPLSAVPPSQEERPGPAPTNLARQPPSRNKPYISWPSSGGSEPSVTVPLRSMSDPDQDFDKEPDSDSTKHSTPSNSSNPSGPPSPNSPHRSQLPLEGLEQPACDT
Sequence of Serine/threonine-protein kinase 26 (Q9P289 2-416 limits assumed): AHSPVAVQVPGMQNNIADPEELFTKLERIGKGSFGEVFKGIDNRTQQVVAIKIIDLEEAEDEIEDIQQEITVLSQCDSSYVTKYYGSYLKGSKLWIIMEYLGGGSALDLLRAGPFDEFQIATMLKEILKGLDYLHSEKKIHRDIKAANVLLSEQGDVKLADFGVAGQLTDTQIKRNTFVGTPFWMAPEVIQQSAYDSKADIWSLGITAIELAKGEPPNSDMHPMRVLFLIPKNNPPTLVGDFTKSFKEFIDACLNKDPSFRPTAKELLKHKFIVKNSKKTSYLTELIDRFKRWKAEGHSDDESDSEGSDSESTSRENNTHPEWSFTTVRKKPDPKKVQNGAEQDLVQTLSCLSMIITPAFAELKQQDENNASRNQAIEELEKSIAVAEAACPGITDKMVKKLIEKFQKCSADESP
Sequence of BDNF/NT-3 growth factors receptor (Homo sapiens) (Q16620 32-822 limits assumed): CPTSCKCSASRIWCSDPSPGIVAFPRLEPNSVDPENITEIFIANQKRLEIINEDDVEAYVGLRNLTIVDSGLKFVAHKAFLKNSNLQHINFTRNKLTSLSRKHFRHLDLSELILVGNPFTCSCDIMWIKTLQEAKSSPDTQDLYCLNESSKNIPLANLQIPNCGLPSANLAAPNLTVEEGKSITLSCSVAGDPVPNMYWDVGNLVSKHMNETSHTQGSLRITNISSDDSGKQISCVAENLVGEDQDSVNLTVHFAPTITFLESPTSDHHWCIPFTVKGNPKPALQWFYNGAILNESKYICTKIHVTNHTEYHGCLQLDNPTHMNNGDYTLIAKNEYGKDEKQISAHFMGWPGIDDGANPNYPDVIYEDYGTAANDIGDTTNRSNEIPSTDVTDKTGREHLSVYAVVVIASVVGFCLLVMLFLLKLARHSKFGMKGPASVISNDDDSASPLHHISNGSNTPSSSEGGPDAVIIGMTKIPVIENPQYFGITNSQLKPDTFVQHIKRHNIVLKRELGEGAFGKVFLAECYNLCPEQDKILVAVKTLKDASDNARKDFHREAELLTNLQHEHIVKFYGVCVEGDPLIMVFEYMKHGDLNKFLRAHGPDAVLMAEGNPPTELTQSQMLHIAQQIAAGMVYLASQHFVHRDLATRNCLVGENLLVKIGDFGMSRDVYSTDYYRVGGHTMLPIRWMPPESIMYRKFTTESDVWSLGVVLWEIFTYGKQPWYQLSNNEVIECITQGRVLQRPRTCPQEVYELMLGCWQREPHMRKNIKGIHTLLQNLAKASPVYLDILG

With `N#Cc1cccc(-c2c[nH]c3ncnc(N4CCOCC4)c23)c1`, the figures for the % of control in experiment [1] and in experiment [2] were 86% and 63%, respectively.
`Cc1cc(F)c(C(=O)Nc2cccc(-c3nncn3C(C)C)n2)cc1-n1cnc(C2CC2)c1` returned a % of control in experiment [3] of 100%.
As to `O=C(NOC[C@H](O)CO)c1ccc(F)c(F)c1Nc1ccc(I)cc1F`, the % of control in experiment [4] was determined as 100%; in experiment [5], 83%; in experiment [6] it was 78%.
With `CNC(=O)Nc1ccc(-c2nc(N3CC4CCC(C3)O4)c3cnn(C4CCC5(CC4)OCCO5)c3n2)cc1`, in experiment [7], the % of inhibition came out at 3%.
